Source: publication PMC10674446, “Synthesis and Structural Characterization of Novel Dimers of Dipyridothiazine as Promising Antiproliferative Agents” (Molecules, 2023)
Like-named read-outs stand apart in the source and are kept apart here.

How the values were obtained:
MCF7 breast cancer = experiment: MTT cell viability assay, MCF7; type: cell-based, human; details: for Selectivity Index (SI), MCF-7: SI = IC50 L6 / IC50 MCF-7; for IC50: mean ± SD, n = 3, read-out: Anticancer Activity IC50, MCF-7
Protocol: (§1) MCF7, SW480 and normal L6 muscle cells were bought from the ATCC company, USA [34]. MCF7 and SW480 adenocarcinoma cell lines were cultured, respectively, using Dulbecco’s Modified Eagle Medium (DMEM with 4.5 g/L glucose; HIMEDIA, Mumbai, India) supplemented with 100 U/mL penicillin, 100 µg/mL of streptomycin and 10% fetal bovine serum (FBS; Cat No. FBSEU500; Tico Europe, Amstelveen, The Netherlands) under standard conditions until the desired confluency was reached. Once the desired cell confluency of 70–80% was observed, the cells were sub-cultured through trypsinization, and the cell count was calculated prior to seeding in the 96-well microplate. Similarly, L6 rat myoblasts were cultured accordingly as normal cell lines to compare against MCF7 and SW480 cell lines during the MTT cell viability assay.
(§2) Cells were seeded in a 96-well microplate at a density of 1 × 10^4 cells per well and were allowed to adhere to the wells overnight. […] The cells were exposed to the tested substances at concentrations ranging from 50, 25, 10, 5 and 1 μM. The treatment was conducted over three periods of 24 h, 48 h and 72 h, respectively. […] Lastly, the spent MTT medium was removed and DMSO was added to the wells, where the purple formazan crystals were solubilized, and the intensity of the purple hue was spectrophotometrically measured at 570 nm.
(§3) All values were represented as means ± standard deviations (n = 3). […] The IC50 values were further subjected to one-way ANOVA analysis along with the post hoc test to determine the statistical significance between the treatment groups and the negative control (untreated cells).

normal L6 rat myoblasts = experiment: MTT cell viability assay, normal L6 cells; type: cell-based; details: mean ± SD, n = 3, read-out: Anticancer Activity IC50, L6
Protocol: as §1
(§4) Cells were seeded in a 96-well microplate at a density of 1 × 10^4 cells per well and were allowed to adhere to the wells overnight. Subsequently, the cells were treated with varying concentrations of 12 compounds (1a,b,c–4a,b,c) along with doxorubicin as the positive control. The cells were exposed to the tested substances at concentrations ranging from 50, 25, 10, 5 and 1 μM. The treatment was conducted over three periods of 24 h, 48 h and 72 h, respectively. After the treatment period, thiazolyl blue tetrazolium bromide (MTT) solution was added to each well at a concentration of 0.5 mg/mL and incubated for 3 h in a 37 °C incubator supplemented with 5% CO2. Lastly, the spent MTT medium was removed and DMSO was added to the wells, where the purple formazan crystals were solubilized, and the intensity of the purple hue was spectrophotometrically measured at 570 nm.
(§5) All values were represented as means ± standard deviations (n = 3). The data were statistically analyzed using GraphPad Prism 10.1.0, where the IC50 values of each compound treated on different cell lines at different time points were obtained by extrapolating the logarithmic dose–response curve. The IC50 values were further subjected to one-way ANOVA analysis along with the post hoc test to determine the statistical significance between the treatment groups and the negative control (untreated cells).

SW480 colon cancer = experiment: MTT cell viability assay, SW480; type: cell-based, human; details: for Selectivity Index (SI), SW480: SI = IC50 L6 / IC50 SW480; for IC50: mean ± SD, n = 3, read-out: Anticancer Activity IC50, SW480
Protocol: as §1, §2, §3

[1] = system: MCF7 and SW480 cancer cells; experiment: MTT cell viability assay, both cancer cell lines; type: cell-based, human
Protocol: as §1, §4, §5

[2] = Homo sapiens, MCF7, 24 h treatment period
[3] = Homo sapiens, MCF7, 48 h treatment period
[4] = Homo sapiens, MCF7, 72 h treatment period, NA = IC50 beyond the tested concentration range (1-50 µM)
[5] = Rattus norvegicus, Myoblast, 24 h treatment period
[6] = Rattus norvegicus, Myoblast, 48 h treatment period
[7] = Rattus norvegicus, Myoblast, 72 h treatment period
[8] = Homo sapiens, SW480, 24 h treatment period
[9] = Homo sapiens, SW480, 48 h treatment period
[10] = Homo sapiens, SW480, 72 h treatment period
[11] = 72 h treatment period, NA = IC50 beyond the tested concentration range (1-50 µM)

| Compound | Selectivity Index (SI), MCF-7 (MCF7 breast cancer; 24 h) | Selectivity Index (SI), MCF-7 (MCF7 breast cancer; 48 h) | Selectivity Index (SI), MCF-7 (MCF7 breast cancer; 72 h) | IC50 (MCF7 breast cancer; [2]) [µM] | IC50 (MCF7 breast cancer; [3]) [µM] | IC50 (MCF7 breast cancer; [4]) [µM] | IC50 (normal L6 rat myoblasts; [5]) [µM] | IC50 (normal L6 rat myoblasts; [6]) [µM] | IC50 (normal L6 rat myoblasts; [7]) [µM] | Selectivity Index (SI), SW480 (SW480 colon cancer; 24 h) | Selectivity Index (SI), SW480 (SW480 colon cancer; 48 h) | Selectivity Index (SI), SW480 (SW480 colon cancer; 72 h) | IC50 (SW480 colon cancer; [8]) [µM] | IC50 (SW480 colon cancer; [9]) [µM] | IC50 (SW480 colon cancer; [10]) [µM] | melting point [°C] | further results |
| --- | --- | --- | --- | --- | --- | --- | --- | --- | --- | --- | --- | --- | --- | --- | --- | --- | --- |
| c1ccc(CN2c3ccncc3Sc3ccncc32)c(CN2c3ccncc3Sc3ccncc32)c1 [3a, 1,2-bis((dipyrido[3,4-b:3′,4′-e][1,4]thiazin-10-yl)methyl)benzene] | 6.46 | 6.85 | 3.51 | 4.77 ± 0.84 | 3.17 ± 0.13 | 6.1 ± 1.33 | 30.8 ± 0.47 | 21.7 ± 0.48 | 21.41 ± 0.17 | 5.02 | 5.22 | 4.69 | 6.12 ± 0.21 | 4.16 ± 0.08 | 4.56 ± 1.18 | 280 to 282 | toxicity towards both MCF7 and SW480 cancer cells (in words) ([1]; 24, 48 and 72 h of incubation): significantly toxic; IC50 ([1]; Homo sapiens, MCF7 and SW480, span over 24, 48 and 72 h, read-out: IC50 range towards both cancer cell lines): 3.17 to 6.12 µM |
| COc1cccc2c1C(=O)c1c(O)c3c(c(O)c1C2=O)C[C@@](O)(C(=O)CO)C[C@@H]3O[C@H]1C[C@H](N)[C@H](O)[C@H](C)O1 [Doxorubicin, reference compound] | 0.41 | 0.25 | – | 28.4 ± 0.36 | 24.6 ± 2.37 | – | 11.5 ± 0.68 | 6.62 ± 0.18 | 3.07 ± 0.38 | 0.85 | 0.63 | 0.28 | 13.46 ± 0.11 | 10.44 ± 0.1 | 10.77 ± 0.07 | – | – |
| c1cc(CN2c3ccncc3Sc3ccncc32)nc(CN2c3ccncc3Sc3ccncc32)c1 [3c, 2,6-bis((dipyrido[3,4-b:3′,4′-e][1,4]thiazin-10-yl)methyl)pyridine] | 3.25 | 2.42 | 1.41 | 15 ± 0.73 | 11.7 ± 0.38 | 25.2 ± 1.74 | 48.98 ± 0.33 | 28.4 ± 0.37 | 35.53 ± 0.04 | 2.19 | 0.94 | 1.37 | 22.3 ± 0.93 | 28.8 ± 1.55 | 25.9 ± 0.84 | 245 to 247 | – |
| c1ccc(CN2c3ccncc3Sc3ncccc32)c(CN2c3ccncc3Sc3ncccc32)c1 [4a, 1,2-bis((dipyrido[2,3-b:4′,3′-e][1,4]thiazin-5-yl)methyl)benzene] | 1.10 | 0.68 | 0.75 | 32.7 ± 2.31 | 33.8 ± 1.46 | 19.9 ± 2.36 | 35.9 ± 0.57 | 22.9 ± 1.39 | 14.9 ± 1.15 | 1.56 | 0.95 | 0.61 | 23 ± 1.22 | 24.1 ± 0.66 | 24.4 ± 0.83 | 302 to 303 | – |
| c1cnc2c(c1)Sc1ncccc1N2Cc1ccc(CN2c3cccnc3Sc3cccnc32)cc1 [1b, 1,4-bis((dipyrido[2,3-b:2′,3′-e][1,4]thiazin-10-yl)methyl)benzene] | 1.38 | 0.12 | 1.22 | 11.6 ± 0.15 | 15.9 ± 0.83 | 9.6 ± 0.46 | 16 ± 0.36 | 1.92 ± 1.39 | 11.7 ± 0.59 | 0.55 | 0.1 | 0.59 | 28.7 ± 1.28 | 20.7 ± 1.22 | 19.8 ± 1.21 | – | cytotoxicity towards MCF7 compared with SW480 (in words) ([1]; breast cancer cell line MCF7 versus colon cancer cell line SW480): higher cytotoxicity |
| 1,4-bis((dipyrido[2,3-b:2′,3′-e][1,4]thiazin-10-yl)methyl)benzene [4b] | 1.23 | 1.27 | 0.45 | – | – | – | – | – | – | 1.21 | 1.16 | 0.54 | – | – | – | – | IC50 (MCF7 breast cancer; 24 h treatment period): 29.7 ± 1.33 µM; IC50 (MCF7 breast cancer; 48 h treatment period): 24.24 ± 0.17 µM; IC50 (MCF7 breast cancer; [11]): 25.6 ± 0.35 µM; IC50 (normal L6 rat myoblasts; 24 h treatment period): 36.7 ± 1.03 µM; IC50 (normal L6 rat myoblasts; 48 h treatment period): 30.8 ± 0.93 µM; IC50 (normal L6 rat myoblasts; 72 h treatment period): 11.6 ± 0.47 µM; IC50 (SW480 colon cancer; 24 h treatment period): 29.1 ± 0.37 µM; IC50 (SW480 colon cancer; 48 h treatment period): 26.4 ± 0.74 µM; IC50 (SW480 colon cancer; 72 h treatment period): 21.41 ± 0.21 µM |
| 1,4-bis((dipyrido[2,3-b:2′,3′-e][1,4]thiazin-10-yl)methyl)benzene [3b] | 1.09 | 0.81 | 1.17 | – | – | – | – | – | – | – | 1.07 | 1.15 | – | – | – | – | IC50 (MCF7 breast cancer; 24 h treatment period): 19 ± 1.23 µM; IC50 (MCF7 breast cancer; 48 h treatment period): 28 ± 0.65 µM; IC50 (MCF7 breast cancer; [11]): 18.89 ± 0.15 µM; IC50 (normal L6 rat myoblasts; 24 h treatment period): 20.8 ± 0.28 µM; IC50 (normal L6 rat myoblasts; 48 h treatment period): 22.7 ± 0.29 µM; IC50 (normal L6 rat myoblasts; 72 h treatment period): 22.15 ± 0.22 µM; IC50 (SW480 colon cancer; 24 h treatment period): 24.5 ± 0.26 µM; IC50 (SW480 colon cancer; 48 h treatment period): 21.19 ± 0.14 µM; IC50 (SW480 colon cancer; 72 h treatment period): 19.3 ± 0.12 µM |
